# In article PMC9247443 (Frontiers in Pharmacology, 2022):
# Several values for one entry are separate records, joined by “and”; a condition that tells them apart may be missing. Equal values may be shown once.
# Assays:
# human S1P5 [1] = biological target: T1, human S1P5 (Homo sapiens, UniProt Q9H228); assay: [^35S]-GTPγS binding; type: biochemical; settings: for EC50: [^35S]-GTPγS binding, CHO cell membranes; for EC50 / Human S1P5 IA: mean ± SEM; for Human S1P5 IA: intrinsic activity relative to maximal S1P response (100%); for GTPγS potency for human S1P5 weaker than that for S1P1: S1P5 versus S1P1 EC50
# T1 sequence (Q9H228 whole entry): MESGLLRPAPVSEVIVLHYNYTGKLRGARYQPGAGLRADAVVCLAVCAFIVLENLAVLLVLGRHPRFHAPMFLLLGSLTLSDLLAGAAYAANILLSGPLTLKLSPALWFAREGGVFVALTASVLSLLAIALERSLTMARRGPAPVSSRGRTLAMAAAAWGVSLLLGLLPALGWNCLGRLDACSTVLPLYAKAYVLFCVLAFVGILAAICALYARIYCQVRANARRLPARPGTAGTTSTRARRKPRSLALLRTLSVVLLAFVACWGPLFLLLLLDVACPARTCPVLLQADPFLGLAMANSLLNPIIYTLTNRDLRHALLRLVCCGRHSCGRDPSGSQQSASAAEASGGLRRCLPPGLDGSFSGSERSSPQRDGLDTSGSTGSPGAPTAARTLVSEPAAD
# Source text: (§1) Stable clones of Chinese hamster ovary (CHO) cells expressing human S1P1 and S1P5 were generated by transfecting the cells with the N-terminal hemagglutinin-tagged receptor in pcDNA3.1 expression vectors followed by antibiotic selection for S1P1 and S1P5 and picking of clones using cyclic adenosine monophosphate assay, fluorescence-activated flow cytometry using the associated tag as well as functional [^35S]-GTPγS binding assays. Stable clones of CHO cells expressing human S1P2, S1P3, and S1P4 with an N-terminal FLAG tag were purchased from Multispan, Inc. (Hayward, CA, United States; catalog numbers C1051-1, CG1049-1, and CG1052-1 for S1P2, S1P3, and S1P4, respectively). Cells were grown to confluence in adherent culture in 500-cm^2 culture trays before being detached with cell scraper in cell-lifting buffer (10 mM HEPES/154 mM NaCl/6.85 mM ethylenediaminetetraacetic acid [EDTA], pH 7.4) and pelleted by centrifugation for 5 min at 1000 rpm. Cell pellets were then resuspended and homogenized in membrane preparation buffer (10 mM HEPES/10 mM EDTA, pH 7.4) using a Polytron PT 1200E homogenizer (Kinematica, Luzern, Switzerland). To collect the membrane pellet, cell homogenates were centrifuged at 48,000 × g at 4°C for 30 min. After discarding the supernatant, the pellet was rehomogenized and recentrifuged as described above. The final pellet was collected and homogenized in ice-cold resuspension buffer (10 mM HEPES and 0.1 mM EDTA, pH 7.4).
# (§2) To quantitate receptor activation and G protein coupling, [^35S]-GTPγS binding assays were performed in 96-well nonbinding surface plates (Corning, New York, New York, United States; catalog number 3604) in a final volume of 200 μl. Test compounds were serial diluted in DMSO directly to the assay plate using the Tecan D300E digital printer in a total volume of 0.4 μl. […] All wells were brought to a total volume of 40 μl with assay buffer, and the reaction was initiated by the addition of 120 μl/well of assay buffer containing a mixture of 40 μg/ml S1P1–S1P5 membranes, 5–50 μM GDP (5 μM for S1P2 and S1P4, 16.67 μM GDP for S1P1 and S1P5, and 50 μM for S1P3), and 2.5 mg/ml of WGA PVT SPA beads (Perkin Elmer catalog number RPNQ0001). Assay plates were sealed and incubated at room temperature with gentle agitation for 30 min before adding 40 μl/well of 5× [^35S]-GTPγS (200 p.m. final) (Perkin Elmer, catalog number NEG030X250UC) in basic assay buffer (20 mM HEPES/10 mM MgCl2/100 mM NaCl/1 mM EDTA, pH 7.4) and then plates were resealed for an additional 40-min incubation at room temperature with gentle agitation. The experiment was terminated by centrifugation of the plates at 1000 rpm for 3 min using an Eppendorf (Hamburg, Germany) 5810R centrifuge and read on the MicroBeta2 microplate scintillation counter. Data were analyzed as raw counts per 40 s per well as collected from the MicroBeta2 counter. Raw counts were analyzed with GraphPad Prism version 8.0.0 using nonlinear regression to generate concentration response curves.
# human S1P2 = biological target: T2, human S1P2 (Homo sapiens, UniProt O95136); assay: [^35S]-GTPγS binding; type: biochemical; settings: mean ± SEM; for EC50: [^35S]-GTPγS binding, CHO cell membranes; for Human S1P2 IA: intrinsic activity relative to maximal S1P response (100%)
# T2 construct: membrane preparation
# T2 sequence (O95136 whole entry): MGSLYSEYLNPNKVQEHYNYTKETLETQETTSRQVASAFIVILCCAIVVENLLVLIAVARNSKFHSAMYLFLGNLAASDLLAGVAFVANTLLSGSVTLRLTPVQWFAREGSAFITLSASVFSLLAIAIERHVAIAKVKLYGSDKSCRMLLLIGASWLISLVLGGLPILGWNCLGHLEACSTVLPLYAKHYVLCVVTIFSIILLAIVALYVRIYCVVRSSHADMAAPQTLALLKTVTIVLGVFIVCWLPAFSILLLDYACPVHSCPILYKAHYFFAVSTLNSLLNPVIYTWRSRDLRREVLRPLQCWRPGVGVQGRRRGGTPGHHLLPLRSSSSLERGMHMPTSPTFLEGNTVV
# Source text: as §1, §2
# human S1P3 = biological target: T3, human S1P3 (Homo sapiens, UniProt Q99500); assay: [^35S]-GTPγS binding; type: biochemical; settings: mean ± SEM; for EC50: [^35S]-GTPγS binding, CHO cell membranes; for Human S1P3 IA: intrinsic activity relative to maximal S1P response (100%)
# T3 construct: membrane preparation
# T3 sequence (Q99500 whole entry): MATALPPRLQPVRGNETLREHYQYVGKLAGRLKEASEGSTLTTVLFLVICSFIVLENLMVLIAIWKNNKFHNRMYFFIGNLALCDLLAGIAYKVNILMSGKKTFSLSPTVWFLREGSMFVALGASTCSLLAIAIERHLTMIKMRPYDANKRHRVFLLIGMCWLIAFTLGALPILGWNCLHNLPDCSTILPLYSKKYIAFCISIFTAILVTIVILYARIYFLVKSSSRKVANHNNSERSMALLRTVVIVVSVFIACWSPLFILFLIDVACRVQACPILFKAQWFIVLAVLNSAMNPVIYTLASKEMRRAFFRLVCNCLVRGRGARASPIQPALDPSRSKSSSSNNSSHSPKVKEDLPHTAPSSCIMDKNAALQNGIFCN
# Source text: as §1, §2
# human S1P4 = biological target: T4, human S1P4 (Homo sapiens, UniProt O95977); assay: [^35S]-GTPγS binding; type: biochemical; settings: mean ± SEM; for EC50: [^35S]-GTPγS binding, CHO cell membranes; for Human S1P4 IA: intrinsic activity relative to maximal S1P response (100%)
# T4 construct: membrane preparation
# T4 sequence (O95977 1-384): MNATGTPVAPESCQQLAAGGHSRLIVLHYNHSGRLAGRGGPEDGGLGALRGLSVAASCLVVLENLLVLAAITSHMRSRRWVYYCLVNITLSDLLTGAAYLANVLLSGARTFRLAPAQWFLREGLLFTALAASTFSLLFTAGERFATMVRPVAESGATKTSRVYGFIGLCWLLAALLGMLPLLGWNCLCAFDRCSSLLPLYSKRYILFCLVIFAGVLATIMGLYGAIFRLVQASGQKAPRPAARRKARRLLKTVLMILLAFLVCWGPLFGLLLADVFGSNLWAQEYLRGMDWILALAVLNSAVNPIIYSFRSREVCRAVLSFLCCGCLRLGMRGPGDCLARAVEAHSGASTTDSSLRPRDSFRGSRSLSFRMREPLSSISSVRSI
# Source text: as §1, §2
# human S1P1 [2] = biological target: T5, human S1P1 (Homo sapiens, UniProt P21453); assay: [^35S]-GTPγS binding; type: biochemical; settings: mean ± SEM; for EC50: [^35S]-GTPγS binding, CHO cell membranes; for Human S1P1 IA: intrinsic activity relative to maximal S1P response (100%)
# T5 sequence (P21453 whole entry): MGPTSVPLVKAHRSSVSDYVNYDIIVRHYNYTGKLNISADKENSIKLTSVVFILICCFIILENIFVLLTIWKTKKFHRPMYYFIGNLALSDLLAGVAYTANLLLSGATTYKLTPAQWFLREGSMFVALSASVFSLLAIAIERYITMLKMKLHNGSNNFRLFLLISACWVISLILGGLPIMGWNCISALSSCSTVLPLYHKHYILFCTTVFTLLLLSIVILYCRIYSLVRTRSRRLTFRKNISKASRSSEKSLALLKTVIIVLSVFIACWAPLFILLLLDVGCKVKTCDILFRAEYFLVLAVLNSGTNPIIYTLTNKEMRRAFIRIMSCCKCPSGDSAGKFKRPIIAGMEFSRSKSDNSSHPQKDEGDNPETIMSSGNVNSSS
# Source text: as §1, §2
# human S1P5 [3] = biological target: T1, human S1P5; assay: [^3H]-ozanimod competition radioligand binding
# Source text: as §1
# (§3) Assay plates were sealed and incubated at room temperature with gentle agitation for 60 min before filtration as described above.
# (§4) Data were again analyzed as raw counts per 60 s per well collected from the MicroBeta2 counter.
# human S1P1 [4] = biological target: T5, human S1P1; assay: [^3H]-ozanimod competition radioligand binding
# Source text: as §1, §3, §4
# human S1P1 [5] = biological target: T5, human S1P1; assay: S1P1-mediated β-arrestin recruitment assay (PathHunter eXpress EDG1 CHO-K1); type: cell-based; settings: for Emax: CHO-K1, read-out: β-arrestin recruitment Intrinsic Activity, human S1P1; for EC50: EDG1(S1P1)/β-arrestin CHO-K1 cells, 90 min, mean ± SEM (n = 3–5) or SD (n = 2)
# Procedure: Human S1P1 β-arrestin assays were carried out using the PathHunter® eXpress EDG1 CHO-K1 β-arrestin GPCR Assay (DiscoverX, Cat# 93-0207E2, including frozen cell stock, assay media, and assay plate). EDG1(S1P1)/β-arrestin CHO-K1 cells were thawed by adding 0.5 ml warm media to the vial. The cells were then transferred to 11.5 ml warm media, seeded at a density of 10,000 cells per well in a 96 well assay plate in a volume of 100 μL per well and incubated overnight in a 37°C CO2 incubator. […] Compounds were then added to the EDG1(S1P1)/β-arrestin CHO-K1 cells—10 μl per well of the 11X stock was added to the 100 ul per well of cells and the plate was incubated for 90 min in a 37°C CO2 incubator. The detection solution was prepared according to the manufacture’s protocol and 55 μl was added to each well of assay plate. The plate was then incubated for 1 h at room temperature before being read on a SpectraMax5 plate reader. Basal β-arrestin recruitment was determined using medium containing DMSO alone.
# human S1P5 [6] = biological target: T1, human S1P5; assay: Saturation radioligand binding with [^3H]-ozanimod; settings: CHO cell membranes expressing human S1P5, saturation binding
# Source text: as §1, with “Cell pellets were then resuspended and homogenized in membrane preparation buffer (10 mM HEPES/10 mM EDTA, pH 7.4) using a Polytron PT 1200E homogenizer (Kinematica, Luzern, Switzerland). To collect the membrane pellet, cell homogenates were centrifuged at 48,000 × g at 4°C for 30 min. After discarding the supernatant, the pellet was rehomogenized and recentrifuged as described above. The final pellet was collected and homogenized in ice-cold resuspension buffer (10 mM HEPES and 0.1 mM EDTA, pH 7.4).” left out
# Filter plates were prepared by adding 80 μl/well of 0.3% poly (ethyleneimine) and incubating for 60 min at room temperature before washing with 150 ml of filtration buffer (50 mM Tris HCl [pH 7.4], 5 mM MgCl2, and 1 mM EDTA) using a FilterMate-96 harvester. […] Filter plates were then allowed to air dry before the addition of 50 μL/well of MicroScint-20 cocktail, plate sealing, and reading on a MicroBeta2 microplate scintillation counter. […]
Structure (SMILES),EC50 (human S1P5 [1]),Human S1P5 IA (human S1P5 [1]),Human S1P5 IA (human S1P5 [1]; listed as amiselimod-p),EC50 (human S1P2),Human S1P2 IA (human S1P2),EC50 (human S1P3),Human S1P3 IA (human S1P3),EC50 (human S1P4),Human S1P4 IA (human S1P4),EC50 (human S1P1 [2]),Human S1P1 IA (human S1P1 [2]),Ki (human S1P5 [3]),Ki (human S1P1 [4]),Emax (human S1P1 [5]),EC50 (human S1P1 [5]),GTPγS potency for human S1P5 weaker than that for S1P1 (human S1P5 [1]),"displacement of specific [^3H]-ozanimod binding, S1P5 (human S1P5 [3]; result in words)","displacement of specific [^3H]-ozanimod binding, S1P1 (human S1P1 [4]; result in words)",Kd (human S1P5 [6])
CCCCCCCOc1ccc(CCC(N)(CO)COP(=O)(O)O)cc1C(F)(F)F (stereo not drawn) [Amiselimod-p],0.58 ± 0.08 nM,76.6 ± 6.9%,76.6%,> 4000 nM,NR (NR indicates no response where the maximal response was less than 10% of that of S1P),19 ± 2.98 nM,29.1 ± 1.6%,2.23 ± 0.13 nM,122.2 ± 3.6%,0.15 ± 0.01 nM,84.1 ± 1.6%,0.25 ± 0.04 nM,0.13 ± 0.02 nM,76.1 ± 11.6%,2.83 ± 2.21 nM,–,–,–,–
O=C(O)C[C@H]1CCc2c1[nH]c1ccc(OCc3ccc(C4CCCC4)c(C(F)(F)F)c3)cc21 [Etrasimod],58.9 ± 6.75 nM,82 ± 4.4%,–,> 10000 nM,NR (NR indicates no response where the maximal response was less than 10% of that of S1P),1160 ± 354 nM,81.2 ± 17%,1130 ± 189 nM,40.4 ± 4.6%,5.48 ± 0.46 nM,86.6 ± 1.1%,16.3 ± 0.71 nM,6.73 ± 0.62 nM,75.8 ± 1.8%,11.3 ± 2.32 nM,approximately 10 fold,–,–,–
"CCCCCCCCc1ccc(CCC(N)(CO)COP(=O)(O)O)cc1 (stereo not drawn) [FTY720-p, FTY720-phosphate]",–,74% and 74 ± 5.1%,–,–,33.2 ± 1%,–,106.5 ± 8.3%,2.06 ± 0.3 nM,59.2 ± 5.4%,–,84.9 ± 2.3%,–,–,79.8 ± 4.3%,–,–,–,–,–
"NC(CO)(CCc1ccc(Sc2cccc(OCc3ccccc3)c2)cc1Cl)COP(=O)(O)O (stereo not drawn) [KRP-203-p, KRP-203-phosphate]",0.69 ± 0.19 nM,45.8 ± 7.6%,–,> 10000 nM,NR (NR indicates no response where the maximal response was less than 10% of that of S1P),3.17 ± 0.26 nM,25.7 ± 3.8%,3.13 ± 0.29 nM,56.3 ± 3.8%,0.26 nM,85.7 ± 3.6%,0.24 ± 0.04 nM,0.22 ± 0.02 nM,72.3 ± 5.4%,2.98 ± 0.96 nM,–,–,–,–
CC(C)Oc1ccc(-c2nc(-c3cccc4c3CC[C@@H]4NCCO)no2)cc1C#N [Ozanimod],5.84 ± 0.51 nM,97 ± 3.7%,–,> 10000 nM,34.8 ± 1%,> 1110 nM,89.4 ± 7.4%,1490 ± 306 nM,39.4 ± 5.3%,–,85 ± 1%,1.93 ± 0.07 nM,–,68.7 ± 3.5%,–,approximately 10 fold,–,–,–
CCC/N=C1\S/C(=C\c2ccc(OC[C@H](O)CO)c(Cl)c2)C(=O)N1c1ccccc1C [Ponesimod],43.2 ± 12 nM,92.9 ± 9.8%,–,> 10000 nM,NR (NR indicates no response where the maximal response was less than 10% of that of S1P),89.5 ± 14.3 nM,82.1 ± 7.5%,> 10000 nM,26.5 ± 2.5%,3.42 ± 1.17 nM,85.8 ± 6.2%,17.4 ± 4.32 nM,9.37 ± 1.31 nM,61.2 ± 1.6%,2.66 ± 0.42 nM,approximately 10 fold,–,–,–
"CCCCCCCCCCCCC/C=C/[C@@H](O)[C@@H](N)COP(=O)(O)O [S1P, sphingosine 1-phosphate]",–,–,–,–,–,–,–,–,–,–,–,–,2.33 ± 0.17 nM,–,–,–,completely displaced,completely displaced,–
CCc1cc(/C(C)=N/OCc2ccc(C3CCCCC3)c(C(F)(F)F)c2)ccc1CN1CC(C(=O)O)C1 [Siponimod],0.3 ± 0.02 nM,102 ± 9.1%,–,> 10000 nM,NR (NR indicates no response where the maximal response was less than 10% of that of S1P),> 1110 nM,90.7 ± 2.5%,384 ± 67.8 nM,81.5 ± 2.4%,0.46 ± 0.05 nM,82.1 ± 0.9%,0.43 ± 0.08 nM,0.74 ± 0.09 nM,68.6 ± 9.2%,9.3 ± 2.79 nM,–,–,–,–
[3H]CC([3H])(C)Oc1ccc(-c2nc(-c3cccc4c3CC[C@@H]4NCCO)no2)cc1C#N (stereo partly drawn) [[^3H]-ozanimod],–,–,–,–,–,–,–,–,–,–,–,–,–,–,–,–,–,–,3.13 nM
